Reference: patent US8501794B2, “Compounds as cannabinoid receptor ligands” (priority 2007, dated 2013)

Legend:
human CB2 receptors = molecular target: T1, human CB2 receptors (Homo sapiens, UniProt P34972); assay: human CB2 radioligand binding assay ([3H]CP-55,940 competition)
T1 construct: expressed in transfected cells; host or cells: HEK293

rat CB2 [1] = molecular target: T2, rat CB2 (Rattus norvegicus, UniProt Q9QZN9); assay: rat CB2 cyclase functional assay (HitHunter cAMP, HEK cells); type: cell-based; set-up: expressed in transfected cells; host or cells: HEK; conditions: forskolin 18 μM
T2 sequence (Q9QZN9 1-360): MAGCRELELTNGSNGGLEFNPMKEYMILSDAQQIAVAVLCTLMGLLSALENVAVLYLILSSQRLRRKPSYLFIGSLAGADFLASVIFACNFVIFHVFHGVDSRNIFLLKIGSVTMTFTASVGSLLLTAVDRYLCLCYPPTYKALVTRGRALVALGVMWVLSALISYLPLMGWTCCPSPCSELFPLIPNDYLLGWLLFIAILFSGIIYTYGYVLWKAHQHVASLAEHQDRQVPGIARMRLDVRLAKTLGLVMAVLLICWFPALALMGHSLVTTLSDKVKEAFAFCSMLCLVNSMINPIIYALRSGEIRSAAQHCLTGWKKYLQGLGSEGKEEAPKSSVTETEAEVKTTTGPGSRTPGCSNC

rat CB2 [2] = molecular target: T2, rat CB2; assay: rat CB2 radioligand binding assay ([3H]CP-55,940 competition); set-up: expressed in transfected cells; host or cells: HEK293

T1 sequence (P34972 whole entry): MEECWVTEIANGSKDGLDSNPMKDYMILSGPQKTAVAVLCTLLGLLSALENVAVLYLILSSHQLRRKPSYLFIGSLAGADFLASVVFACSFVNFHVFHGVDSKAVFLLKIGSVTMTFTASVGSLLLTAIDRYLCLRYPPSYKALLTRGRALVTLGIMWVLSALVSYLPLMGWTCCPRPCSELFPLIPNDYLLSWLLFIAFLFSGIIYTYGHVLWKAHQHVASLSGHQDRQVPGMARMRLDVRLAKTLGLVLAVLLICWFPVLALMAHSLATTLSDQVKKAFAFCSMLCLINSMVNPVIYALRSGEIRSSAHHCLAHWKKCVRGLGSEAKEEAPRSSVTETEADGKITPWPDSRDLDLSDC

| SMILES | Ki (human CB2 receptors) | EC50 (rat CB2 [1]) | Ki (rat CB2 [2]) |
| --- | --- | --- | --- |
| CCCCc1cn(C(C)(C)C)s/c1=N\C(=O)C1(C)CCC(C(=O)OC)C1(C)C (racemic) [Example 92, Methyl 3-({[(5Z)-4-butyl-2-tert-butylisothiazol-5(2H)-ylidene]amino}carbonyl)-2,2,3-trimethylcyclopentanecarboxylate] | 0.2 nM | 0.45 nM | 0.25 nM |
| CCCCc1cn(C(C)(C)C)s/c1=N\C(=O)c1cc(Cl)ccc1OC [Example 1, N-[(5Z)-4-butyl-2-tert-butylisothiazol-5(2H)-ylidene]-5-chloro-2-methoxybenzamide] | 16 nM | 0.72 nM | 1.5 nM |
| C=CCc1cn(C(C)(C)C)s/c1=N\C(=O)c1cc(Cl)ccc1OC [Example 6, N-[(5Z)-4-allyl-2-tert-butylisothiazol-5(2H)-ylidene]-5-chloro-2-methoxybenzamide] | 210 nM | 2.4 nM | 16 nM |
| COc1ccc(Cl)cc1C(=O)/N=c1\sn(C(C)(C)C)cc1CC1CC(C)=NO1 (stereo not shown) [Example 7] | 370 nM | 2.7 nM | 8.8 nM |
| COc1ccc(Cl)cc1C(=O)/N=c1\sn(C(C)(C)C)cc1CC1CC1 [Example 8, N-[(5Z)-2-tert-butyl-4-(cyclopropylmethyl)isothiazol-5(2H)-ylidene]-5-chloro-2-methoxybenzamide] | 4 nM | 1 nM | 1.1 nM |
| COc1ccc(Cl)cc1C(=O)/N=c1\sn(C(C)(C)C)cc1CCN=[N+]=[N-] [Example 14, N-[(5Z)-4-(2-azidoethyl)-2-tert-butylisothiazol-5(2H)-ylidene]-5-chloro-2-methoxybenzamide] | 26 nM | 0.71 nM | 2.4 nM |
| CON=CCCc1cn(C(C)(C)C)s/c1=N\C(=O)c1cc(Cl)ccc1OC [Example 15, N-[(5Z)-2-tert-butyl-4-[3-(methoxyimino)propyl]isothiazol-5(2H)-ylidene]-5-chloro-2-methoxybenzamide] | 170 nM | 1.1 nM | 15 nM |
| COc1ccc(Cl)cc1C(=O)/N=c1\sn(C(C)(C)C)cc1CCC(C)O (stereo not shown) [Example 18, N-[(5Z)-2-tert-butyl-4-(3-hydroxybutyl)isothiazol-5(2H)-ylidene]-5-chloro-2-methoxybenzamide] | 86 nM | 2.7 nM | 4.3 nM |
| COc1ccc(Cl)cc1C(=O)/N=c1\sn(C(C)(C)C)cc1CCC#N [Example 19, N-[(5Z)-2-tert-butyl-4-(2-cyanoethyl)isothiazol-5(2H)-ylidene]-5-chloro-2-methoxybenzamide] | 44 nM | 0.57 nM | 7.1 nM |
| COc1ccc(Cl)cc1C(=O)/N=c1\sn(C(C)(C)C)cc1CC1OCCO1 [Example 22, N-[(5Z)-2-tert-butyl-4-(1,3-dioxolan-2-ylmethyl)isothiazol-5(2H)-ylidene]-5-chloro-2-methoxybenzamide] | 67 nM | 0.24 nM | 6.2 nM |
| COc1ccc(Cl)cc1C(=O)/N=c1\sn(C(C)(C)C)cc1C(O)C(C)C (stereo not shown) [Example 23, N-[(5Z)-2-tert-butyl-4-(1-hydroxy-2-methylpropyl)isothiazol-5(2H)-ylidene]-5-chloro-2-methoxybenzamide] | 14 nM | 0.89 nM | 2.7 nM |
| CC/C=C\c1cn(C(C)(C)C)s/c1=N\C(=O)c1cc(Cl)ccc1OC [Example 25, N-[(5Z)-4-[(1Z)-but-1-enyl]-2-tert-butylisothiazol-5(2H)-ylidene]-5-chloro-2-methoxybenzamide] | 51 nM | 1.7 nM | 1.6 nM |
| CCCCc1cn(C(C)(C)C)s/c1=N\C(=O)c1cc(C#N)ccc1OC [Example 26, N-[(5Z)-4-butyl-2-tert-butylisothiazol-5(2H)-ylidene]-5-cyano-2-methoxybenzamide] | 14 nM | 0.23 nM | 1 nM |
| CCOCc1cn(C(C)(C)C)s/c1=N\C(=O)c1cc(Cl)ccc1OC [Example 29, N-[(5Z)-2-tert-butyl-4-(ethoxymethyl)isothiazol-5(2H)-ylidene]-5-chloro-2-methoxybenzamide] | 180 nM | 0.41 nM | 13 nM |
| COc1ccc(Cl)cc1C(=O)/N=c1\sn(C(C)(C)C)cc1CCCC#N [Example 30, N-[(5Z)-2-tert-butyl-4-(3-cyanopropyl)isothiazol-5(2H)-ylidene]-5-chloro-2-methoxybenzamide] | 17 nM | 0.2 nM | 2.6 nM |
| COc1ccc(Cl)cc1C(=O)/N=c1\sn(C(C)(C)C)cc1C(O)C1CCC1 (stereo not shown) [Example 34, N-[(5Z)-2-tert-butyl-4-[cyclobutyl(hydroxy)methyl]isothiazol-5(2H)-ylidene]-5-chloro-2-methoxybenzamide] | 3.6 nM | 0.4 nM | 1.2 nM |

| SMILES | Ki (human CB2 receptors) | EC50 (rat CB2 [1]) | Ki (rat CB2 [2]) |
| --- | --- | --- | --- |
| COc1ccc(Cl)cc1C(=O)/N=c1\sn(C(C)(C)C)cc1CCC1CCC1 [Example 36, N-[(5Z)-2-tert-butyl-4-(2-cyclobutylethyl)isothiazol-5(2H)-ylidene]-5-chloro-2-methoxybenzamide] | 1.3 nM | 0.91 nM | 0.16 nM |
| COc1ccc(Cl)cc1C(=O)/N=c1\sn(C(C)(C)C)cc1CC(C)C [Example 37, N-[(5Z)-2-tert-butyl-4-isobutylisothiazol-5(2H)-ylidene]-5-chloro-2-methoxybenzamide] | 31 nM | 1.3 nM | 5.8 nM |
| COc1ccc(Cl)cc1C(=O)/N=c1\sn(C(C)(C)C)cc1CC1CCC1 [Example 38, N-[(5Z)-2-tert-butyl-4-(cyclobutylmethyl)isothiazol-5(2H)-ylidene]-5-chloro-2-methoxybenzamide] | 2.5 nM | 1.7 nM | 0.61 nM |
| COc1ccc(Cl)cc1C(=O)/N=c1\sn(C(C)(C)C)cc1C1CCOCC1 [Example 39, N-[(5Z)-2-tert-butyl-4-tetrahydro-2H-pyran-4-ylisothiazol-5(2H)-ylidene]-5-chloro-2-methoxybenzamide] | 99 nM | 1.6 nM | 26 nM |
| CCCCc1cn(C(C)(C)C)s/c1=N\C(=O)c1cc(OC)ccc1OC [Example 41, N-[(5Z)-4-butyl-2-tert-butylisothiazol-5(2H)-ylidene]-2,5-dimethoxybenzamide] | 45 nM | 0.21 nM | 6.3 nM |
| CCCCc1cn(C(C)(C)C)s/c1=N\C(=O)c1cc(F)ccc1OC [Example 42, N-[(5Z)-4-butyl-2-tert-butylisothiazol-5(2H)-ylidene]-5-fluoro-2-methoxybenzamide] | 24 nM | 0.31 nM | 2.3 nM |
| CCCCc1cn(C(C)(C)C)s/c1=N\C(=O)c1cc(C)ccc1OC [Example 43, N-[(5Z)-4-butyl-2-tert-butylisothiazol-5(2H)-ylidene]-2-methoxy-5-methylbenzamide] | 18 nM | 0.23 nM | 2.6 nM |
| COC(=O)CCCc1cn(C(C)(C)C)s/c1=N\C(=O)c1cc(C#N)ccc1OC [Example 46, Methyl 4-{(5Z)-2-tert-butyl-5-[(5-cyano-2-methoxybenzoyl)imino]-2,5-dihydroisothiazol-4-yl}butanoate] | – | 0.56 nM | 17 nM |
| CCCCc1cn(C(C)(C)C)s/c1=N\C(=O)c1cc(S(C)(=O)=O)ccc1OC [Example 48, N-[(5Z)-4-butyl-2-tert-butylisothiazol-5(2H)-ylidene]-2-methoxy-5-(methylsulfonyl)benzamide] | – | 0.56 nM | 22 nM |
| COc1ccc(Cl)cc1C(=O)/N=c1\sn(C(C)(C)C)cc1Cc1ccco1 [Example 50, N-[(5Z)-2-tert-butyl-4-(2-furylmethyl)isothiazol-5(2H)-ylidene]-5-chloro-2-methoxybenzamide] | 19 nM | 0.13 nM | 2.5 nM |
| COc1ccc(C#N)cc1C(=O)/N=c1\sn(C(C)(C)C)cc1Cc1ccco1 [Example 51, N-[(5Z)-2-tert-butyl-4-(2-furylmethyl)isothiazol-5(2H)-ylidene]-5-cyano-2-methoxybenzamide] | 140 nM | 0.3 nM | 8.1 nM |
| COc1ccc(Cl)cc1C(=O)/N=c1\sn(C(C)(C)C)cc1Cc1cscn1 [Example 52, N-[(5Z)-2-tert-butyl-4-(1,3-thiazol-4-ylmethyl)isothiazol-5(2H)-ylidene]-5-chloro-2-methoxybenzamide] | 43 nM | 0.15 nM | 4.8 nM |
| CCCCc1cn(C(C)(C)C)s/c1=N\C(=O)[C@]1(C)CC[C@H](C(=O)NCCO)C1(C)C [Example 203, (1R,3S)—N^1-[(5Z)-4-butyl-2-tert-butylisothiazol-5(2H)-ylidene]-N^3-(2-hydroxyethyl)-1,2,2-trimethylcyclopentane-1,3-dicarboxamide] | 70 nM | 3.9 nM | – |
| CCCCc1cn(C(C)(C)C)s/c1=N\C(=O)[C@@H]1CC[C@](C)(C(=O)OC)C1(C)C [Example 204, Methyl (1S,3R)-3-({[(5Z)-4-butyl-2-tert-butylisothiazol-5(2H)-ylidene]amino}carbonyl)-1,2,2-trimethylcyclopentanecarboxylate] | 0.6 nM | 0.34 nM | – |
| CCCCc1cn(C(C)(C)C)s/c1=N\C(=O)[C@@H]1CC[C@](C)(C(=O)O)C1(C)C [Example 205, (1S,3R)-3-({[(5Z)-4-butyl-2-tert-butylisothiazol-5(2H)-ylidene]amino}carbonyl)-1,2,2-trimethylcyclopentanecarboxylic acid] | 21 nM | 11.7 nM | – |
